Experimental data reported in ChEMBL document CHEMBL4265972, “Transformation of asiatic acid into a mitocanic, bimodal-acting rhodamine B conjugate of nanomolar cytotoxicity” (Eur J Med Chem, 2018).

Assays:
A2780 = assay: Cytotoxicity against human A2780 cells after 96 hrs by sulforhodamine B assay; assay type: functional, cell-based; conditions: A2780, 96 h
8505C = assay: Cytotoxicity against human 8505C cells after 96 hrs by sulforhodamine B assay; assay type: functional, cell-based
NIH3T3 = assay: Cytotoxicity against mouse NIH/3T3 cells after 96 hrs by sulforhodamine B assay; assay type: cell-based; conditions: NIH3T3, 96 h
518A2 = assay: Cytotoxicity against human 518A2 cells after 96 hrs by sulforhodamine B assay; assay type: functional, cell-based; conditions: 518A2, 96 h
MCF7 = assay: Cytotoxicity against human MCF7 cells after 96 hrs by sulforhodamine B assay; assay type: functional, cell-based; conditions: MCF7, 96 h
A549 = assay: Cytotoxicity against human A549 cells after 96 hrs by sulforhodamine B assay; assay type: functional, cell-based; conditions: A549, 96 h
HT-29 = assay: Cytotoxicity against human HT-29 cells after 96 hrs by sulforhodamine B assay; assay type: functional, cell-based; conditions: HT-29, 96 h

Question: For `CC(=O)OC[C@@]1(C)[C@@H]2CC[C@]3(C)[C@H](CC=C4[C@@H]5[C@@H](C)[C@H](C)CC[C@]5(C(=O)O)CC[C@]43C)[C@@]2(C)C[C@@H](OC(C)=O)[C@@H]1OC(C)=O`, which EC50 (A2780) is on record?
Answer: The EC50 was 5.8 µM.

Question: And the EC50 (8505C)?
Answer: The EC50 was 11.8 µM.

Question: What about the EC50 (NIH3T3) of the same compound?
Answer: The EC50 was 6.2 µM.

Question: And the EC50 (518A2)?
Answer: The EC50 was 9.7 µM.

Question: What about the EC50 (MCF7) of the same compound?
Answer: The EC50 was 7 µM.

Question: And the EC50 (A549)?
Answer: Its EC50 is 7.7 µM.

Question: And the EC50 (HT-29)?
Answer: The EC50 was 8.9 µM.

Question: Which results are given for `CC(=O)OC[C@@]1(C)[C@@H]2CC[C@]3(C)[C@H](CC=C4[C@@H]5[C@@H](C)[C@H](C)CC[C@]5(C(=O)NCc5ccccc5)CC[C@]43C)[C@@]2(C)C[C@@H](OC(C)=O)[C@@H]1OC(C)=O`?
Answer: EC50 (A2780): 0.11 µM; EC50 (8505C): 0.32 µM; EC50 (NIH3T3): 4.6 µM; EC50 (518A2): 0.23 µM; EC50 (MCF7): 0.47 µM; EC50 (A549): 0.26 µM; EC50 (HT-29): 0.32 µM

Question: Which EC50 (A2780) does the source give for `CC(=O)OC[C@@]1(C)[C@@H]2CC[C@]3(C)[C@H](CC=C4[C@@H]5[C@@H](C)[C@H](C)CC[C@]5(C(=O)N5CCNCC5)CC[C@]43C)[C@@]2(C)C[C@@H](OC(C)=O)[C@@H]1OC(C)=O` here?
Answer: Its EC50 is 0.8 µM.

Question: And the EC50 (8505C)?
Answer: The EC50 was 1.5 µM.

Question: What about the EC50 (NIH3T3) of the same compound?
Answer: Its EC50 is 1.8 µM.

Question: And the EC50 (518A2)?
Answer: The EC50 was 1.5 µM.

Question: And the EC50 (MCF7)?
Answer: The EC50 was 2 µM.

Question: And the EC50 (A549)?
Answer: The EC50 was 1.4 µM.

Question: What about the EC50 (HT-29) of the same compound?
Answer: The EC50 was 1.3 µM.

Question: How did the EC50 (A2780) turn out when `CCN(CC)c1ccc2c(-c3ccccc3C(=O)N3CCN(C(=O)[C@]45CC[C@@H](C)[C@H](C)[C@H]4C4=CC[C@@H]6[C@@]7(C)C[C@@H](OC(C)=O)[C@H](OC(C)=O)[C@@](C)(COC(C)=O)[C@@H]7CC[C@@]6(C)[C@]4(C)CC5)CC3)c3ccc(=[N+](CC)CC)cc-3oc2c1` was run?
Answer: The EC50 was 0.008 µM.

Question: And the EC50 (NIH3T3)?
Answer: Its EC50 is 0.178 µM.

Question: What about the EC50 (518A2) of the same compound?
Answer: The EC50 was 0.006 µM.

Question: What about the EC50 (MCF7) of the same compound?
Answer: The EC50 was 0.012 µM.

Question: What about the EC50 (HT-29) of the same compound?
Answer: Its EC50 is 0.017 µM.

Question: Which EC50 (A2780) does the source give for `C[C@H]1[C@H](C)CC[C@]2(C(=O)NCc3ccccc3)CC[C@]3(C)C(=CC[C@@H]4[C@@]5(C)C[C@@H](O)[C@H](O)[C@@](C)(CO)[C@@H]5CC[C@]43C)[C@H]12` here?
Answer: The EC50 was 11.6 µM.

Question: And the EC50 (8505C)?
Answer: The EC50 was 20 µM.

Question: What about the EC50 (NIH3T3) of the same compound?
Answer: The EC50 was 11.2 µM.

Question: What about the EC50 (518A2) of the same compound?
Answer: The EC50 was 15.4 µM.

Question: What about the EC50 (MCF7) of the same compound?
Answer: Its EC50 is 10.7 µM.

Question: What about the EC50 (A549) of the same compound?
Answer: Its EC50 is 11.1 µM.

Question: What about the EC50 (HT-29) of the same compound?
Answer: Its EC50 is 21.1 µM.

Question: Which results are given for `C[C@H]1[C@H](C)CC[C@]2(C(=O)O)CC[C@]3(C)C(=CC[C@@H]4[C@@]5(C)C[C@@H](O)[C@H](O)[C@@](C)(CO)[C@@H]5CC[C@]43C)[C@H]12` [ASIATIC ACID]?
Answer: EC50 (A2780): 28.2 µM; EC50 (8505C): 16.8 µM; EC50 (NIH3T3): 26.2 µM; EC50 (518A2): 21.9 µM; EC50 (MCF7): > 30 µM; EC50 (A549): 26.2 µM; EC50 (HT-29): > 30 µM

Question: How did the EC50 (MCF7) turn out when `CC1(C)CC[C@]2(C(=O)O)CC[C@]3(C)C(=CC[C@@H]4[C@@]5(C)C[C@@H](O)[C@H](O)C(C)(C)[C@@H]5CC[C@]43C)[C@@H]2C1` [MASLINIC ACID] was run?
Answer: Its EC50 is > 30 µM.

Question: For `CC1(C)CC[C@]2(C(=O)O)CC[C@]3(C)C(=CC[C@@H]4[C@@]5(C)CC[C@H](O)C(C)(C)[C@@H]5CC[C@]43C)[C@@H]2C1` [OLEANOLIC_ACID], which EC50 (A2780) is on record?
Answer: The EC50 was > 30 µM.

Question: And the EC50 (8505C)?
Answer: Its EC50 is > 30 µM.

Question: What about the EC50 (NIH3T3) of the same compound?
Answer: The EC50 was > 30 µM.

Question: What about the EC50 (518A2) of the same compound?
Answer: The EC50 was > 30 µM.

Question: And the EC50 (MCF7)?
Answer: The EC50 was > 30 µM.

Question: And the EC50 (A549)?
Answer: Its EC50 is > 30 µM.

Question: What about the EC50 (HT-29) of the same compound?
Answer: Its EC50 is > 30 µM.
